Data set [1] has as its system A375 cells. Description: A375 Cellular Proliferation Assay (A375 CP). Format: cell-based. To be noted: Homo sapiens, A-375, 48 h; A375-luc cells, 2 days. On the procedure:
A375-luc cells engineered to express luciferase are plated to 384-well white clear bottom plates as 1,500 cells/50 μl/well in DMEM containing 10% FBS. Compounds of the invention dissolved in 100% DMSO at appropriate concentrations are transferred to the cells by a robotic Pin Tool (100 nl). The cells are incubated for 2 days at […], then 25 μl of BrightGlo™ is added to each well and the plates are read by luminescence. The concentration of each compound for 50% inhibition (IC50) was calculated by non-linear regression using XL Fit data analysis software.

The nature of data set [2]: In Vivo Pharmacokinetics Assay. Details: species or system mouse. To be noted: oral dose of 10 mg/kg. Here is the method: Full pharmacokinetics study: Male Balb/c mice (n=3, body weights 22-25 g) or male Wistar rats (n=3, body weights 250-300 g) were administered the test compound intravenously via the lateral tail vein or orally via gavage. The formulation was typically a 2.5 mg/mL solution of the compound in 75% PEG300 and 25% D5W. Six blood samples of 50 μL each were collected serially for 24 h after dosing. The blood samples were centrifuged to separate the plasma. Plasma samples were analyzed and quantified by LC-MS/MS.
Rapid pharmacokinetics study: Male Balb/c mice (n=3, body weights 22-25 g) or male Wistar rats (n=3, body weights 250-300 g) were administered the test compound intravenously (IV) via the lateral tail vein or orally (PO) via gavage. The formulation was typically a 2.5 mg/mL solution of the compound in 75% PEG300 and 25% D5W. Six blood samples of 50 μL each were collected serially for 24 h after dosing. […] Plasma samples were analyzed and quantified by LC-MS/MS.
For both full and rapid pharmacokinetics studies, the following parameters were calculated by non-compartmental regression analysis using Winnonlin 5.0 software (Pharsight, Mountain View, Calif., USA): plasma clearance (Cl), plasma maximum concentration (Cmax), plasma area-under-the-concentration-time-curve (AUC0-inf), and percent oral bioavailability (F %).

For data set [3], the system named is SW620 cells. Briefly: SW620 Cell Viability Assay (Cell Titer Glo). Format: cell-based. Conditions: 9 serial dilutions between 10 and 0.002 μM, FIG. 1. Here is the method: SW620 cells were seeded in 1640 RPMI+10% FBS at a density of 1500 cells per 96-well in black walled, clear bottom tissue culture treated plates. Test compounds were serially diluted in DMSO then added to the cells (final DMSO concentration of 0.1%) and incubated at 37° C. and 5% CO2 for 4 days. To measure cell viability, cell plates were brought to room temperature, culture media was removed, and 200 μl of Cell Titer-Glo reagent (Promega, kit components mixed as per the manufacturer's protocol then diluted 1:2 with growth media) was added to each well. Plates were shaken for 5 minutes, then incubated at room temperature for 5 minutes, and the luminescence was measured (Trilux, Perkin Elmer).

For data set [4], the system named is p38α MAP Kinase. Briefly: A549 p38α MAP Kinase Bright-Glo Reporter Gene Assay. The class given is cell-based. Conditions: ratio of p38 RGA IC50 to A375 CP IC50. On the procedure: A549 cells were stably-transfected with the IL-8 promoter driven reporter, pGL3-IL8-Luc. The cells were plated at 4×10^5/ml into 384-well solid white plates (40 ul/well, 5% CD-FBS, 1×P/S, DMEM) and were incubated overnight (18-20 hours) at 37° C. Test compounds were serially diluted in DMSO, then 50 nl of test solution was added to the incubation (final DMSO concentration of 0.1%). After incubating with test compound for 30 min, cells were stimulated with 1 ng/ml IL-1 beta (10 ul of 5 ng/ml solution per well). Bright-Glo (25 ul/well) was added to measure luciferase expression after 7-8 hours of stimulation.

On to `COC(=O)N[C@@H](C)CNc1nccc(-c2cn(C(C)C)nc2-c2cc(NS(C)(=O)=O)c(C)c(OC)c2)n1` [Compound 27], for which, in data set [1], the IC50 was more than 20 µM.

As to `COC(=O)N[C@@H](C)CNc1nccc(-c2cn(C(C)C)nc2-c2cc(Cl)cc(NS(C)(=O)=O)c2F)n1` [Compound 9, Methyl N-[(2S)-1-({4-[3-(5-chloro-2-fluoro-3-methanesulfonamidophenyl)-1-(propan-2-yl)-1H-pyrazol-4-yl]pyrimidin-2-yl}amino)propan-2-yl]carbamate], the “AUC (total drug exposure)” value in data set [2] came to 30 ± 4 µM·h. In data set [3], the “Effect on cellular proliferation” value was “induction in cellular proliferation”.

On to `CNc1nccc(-c2cn(C(C)C)nc2-c2cc(Cl)cc(NS(C)(=O)=O)c2F)n1` [Compound 29, N-(5-chloro-2-fluoro-3-{4-[2-(methylamino)pyrimidin-4-yl]-1-(propan-2-yl)-1H-pyrazol-3-yl}phenyl)methanesulfonamide], for which the “(p38 RGA)/(A375) ratio” value in data set [4] is 220.

Consider `COC(=O)NC[C@H](C)Nc1nccc(-c2cn(C(C)C)nc2-c2cc(Cl)cc(NS(C)(=O)=O)c2F)n1` [Compound 32, Methyl N-[(2S)-2-({4-[3-(5-chloro-2-fluoro-3-methanesulfonamidophenyl)-1-(propan-2-yl)-1H-pyrazol-4-yl]pyrimidin-2-yl}amino)propyl]carbamate], for which, in data set [4], the “(p38 RGA)/(A375) ratio” value is 91.

Source of the values: patent US9593100B2, “Compounds and compositions as protein kinase inhibitors” (Array BioPharma, Inc., priority 2009, dated 2017).
